What was measured:
[1] = Localization of radiolabelled Daunorubicin drugs in organs of 3 LL tumor-bearing mice; settings: i.v. 100 micrograms Daunorubicin equivalent, 48 or 72 hours after injection
Description: The radiolabelled Daunorubicin drugs (14-^14 C) are injected intravenously 14 days after implantation of 10^5 3 LL cells. Either 100 micrograms of free Daunorubicin (5×10^5 cpm), or 100 micrograms of Daunorubicin in macromolecular form (5×10^5 cpm) is injected. Localization is measured after the intravenous injection of various products.
The mice are sacrificed by cervical elongation 48 hours or 72 hours after injection. The organs are removed, dissolved by a tissue solubilizing agent (NCS Amersham) at a rate of 200 mg to 300 mg of organ/ml of solubilizing agent, then counted in a liquid scintillant. […] The results are recapitulated in FIG. 3.

[2] = tested on: 3 LL cells; assay: In vivo antitumor activity on mice implanted with 3 LL cells (tumor growth and survival); design: species or system C 57 BL/6 male mice; settings: for inhibition of tumor growth relative to the control lot: Daunorubicin 7x10 micrograms, polymer 8x200 microgram equivalents of Daunorubicin (i.v. days 2, 6, 10, i.p. days 14-30), FIG. 4
Description: The in vivo antitumor activity of the macromolecular drugs is evaluated on C 57 BL/6 male mice aged a total of about 10 weeks. 10^5 3 LL cells are implanted in each mouse by intramuscular injection of 100 microliters of a cellular suspension of 10^6 cells/ml in the right posterior paw.
One lot of 10 mice, serving as a control, is injected with 7×100 microliters of physiologic serum.
One lot of 10 mice is treated with 7×10 micrograms of free Daunorubicin (dosage limited due to the toxicity of the free drug).
After intramuscular injection of the tumoral cells, the macromolecular prodrug is injected intravenously at days 2, 6 and 10, then intraperitoneally at days 14, 18, 22, 26 and 30.
Two parameters are recorded to evaluate the in vivo antitumoral activity: the inhibition of tumor growth and animal survival.

[3] = comparison value, source not given; cited from earlier work
[4] = target: chymotrypsin (Bos taurus, UniProt P00766); assay: Proteolyse in vitro: chymotrypsic hydrolyse, liberated daunorubicin derivative analysed by thin layer chromatography; type: biochemical; settings: Tris-HCl buffer 0.05 M, CaCl2 10 mM, pH 8.0; TLC analysis
Description: The chymotrypsic hydrolyse is effected in a Tris-HCl buffer 0.05 M, CaCl2 10 mM at pH=8.0.
On analysis, the derivatives of the daunorubicin are liberated after enzymatic hydrolysis, by thin layer chromatography.

[5] = target: T1, trypsin (Bos taurus, UniProt P00760); assay: Proteolyse in vitro: trypsic hydrolysis, liberated daunorubicin derivative analysed by thin layer chromatography; type: biochemical; settings: 0.1M sodium bicarbonate, CaCl2 10 mM, pH 8.7; TLC analysis
T1 construct: gene PRSS1
T1 sequence (P00760 24-246): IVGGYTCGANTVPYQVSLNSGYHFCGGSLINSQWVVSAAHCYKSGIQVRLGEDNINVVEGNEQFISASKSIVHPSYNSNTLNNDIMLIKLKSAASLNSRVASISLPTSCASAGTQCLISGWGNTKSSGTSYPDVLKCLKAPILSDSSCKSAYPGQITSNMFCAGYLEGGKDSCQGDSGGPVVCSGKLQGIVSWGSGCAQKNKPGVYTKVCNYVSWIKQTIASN
Description: On analysis, the derivatives of the daunorubicin are liberated after enzymatic hydrolysis, by thin layer chromatography. For example:
Trypsic hydrolysis is carried out in a 0.1M solution of sodium bicarbonate, CaCl2, 10 mM at pH, 8.7.

COc1cccc2c1C(=O)c1c(O)c3c(c(O)c1C2=O)C[C@@](O)(C(C)=O)C[C@@H]3O[C@H]1C[C@H](N)[C@H](O)[C@H](C)O1 [Daunorubicin]
radioactivity of the spleen [1]: significant accumulation of the radioactivity
spleen mass / atrophy [1]: severe atrophy of the spleen
inhibition of tumor growth relative to the control lot [2]: does not influence in a significant manner tumoral growth

COc1cccc2c1C(=O)c1c(O)c3c(c(O)c1C2=O)C[C@@](O)(C(=O)CO)C[C@@H]3O[C@H]1C[C@H](N)[C@H](O)[C@H](C)O1 [adriamycin]
time to disappear from plasma [3]: 20 min

polycarboxylated linear polymer of 2-N-acryloylamino-2-hydroxymethyl-1,3-propanediol substituted by the -Gly-Gly-L-Tyr-Daunorubicin sequence [Example 1]
derivative of daunorubicin liberated after chymotrypsic hydrolysis [4]: frees the daunorubicin

polycarboxylated linear polymer of 2-N-acryloylamino-2-hydroxymethyl-1,3-propanediol substituted by the -Gly-Gly-L-Tyr-L-Leu-Daunorubicin sequence [Example 2]
derivative of daunorubicin liberated after chymotrypsic hydrolysis [4]: liberates leucyl-daunorubicin
spleen mass / atrophy [1]: mass comparable to that of the healthy animals
T/C (survival of the animals treated relative to the control animals) ([2]; 8x200 microgram equivalents of Daunorubicin, FIG. 5): 145
inhibition of tumor growth relative to the control lot [2]: significant inhibition of tumor growth

polycarboxylated linear polymer of 2-N-acryloylamino-2-hydroxymethyl-1,3-propanediol substituted by the Gly-L-Phe-L-Ala-L-Leu-Daunorubicin sequence [Example 3]
derivative of daunorubicin liberated after chymotrypsic hydrolysis [4]: frees alaninyl-leucyl-daunorubicin

polycarboxylated linear polymer of 2-N-acryloylamino-2-hydroxymethyl-1,3-propanediol substituted by the Gly-L-Pro-L-Arg-L-Leu-Daunorubicin sequence [Example 6]
derivative of daunorubicin liberated after trypsic hydrolysis [5]: freeing leucyl-daunorubicin
